PubChem BioAssay (NCI)
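Five concentrations, 48 hours, 96-well plates. GI50 = concentration required for 50% inhibition of growth. TGI is the concentration that stops growth completely.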

What was measured:
Assay in all cases: DTP human tumour cell line panel, 48 h
SNB-19 CNS = tested on: SNB-19 CNS
SF-268 CNS = tested on: SF-268 CNS
CAKI-1 renal = tested on: CAKI-1 renal
EKVX NSCLC = tested on: EKVX NSCLC
MALME-3M melanoma = tested on: MALME-3M melanoma
SK-OV-3 ovarian = tested on: SK-OV-3 ovarian
OVCAR-4 ovarian = tested on: OVCAR-4 ovarian
KM12 colon = tested on: KM12 colon
NCI-H23 lung = tested on: NCI-H23 lung
ACHN renal = tested on: ACHN renal
HCT-15 colon = tested on: HCT-15 colon
UO-31 renal = tested on: UO-31 renal
SR leukemia = tested on: SR leukemia
SF-539 CNS = tested on: SF-539 CNS
SN12C renal = tested on: SN12C renal
CCRF-CEM leukemia = tested on: CCRF-CEM leukemia
NCI-H522 lung = tested on: NCI-H522 lung
M14 melanoma = tested on: M14 melanoma
TK-10 renal = tested on: TK-10 renal
NCI-H460 lung = tested on: NCI-H460 lung
MOLT-4 leukemia = tested on: MOLT-4 leukemia
HL-60(TB) leukemia = tested on: HL-60(TB) leukemia
HCC-2998 colon = tested on: HCC-2998 colon
SK-MEL-5 melanoma = tested on: SK-MEL-5 melanoma
LOX IMVI melanoma = tested on: LOX IMVI melanoma
HOP-62 NSCLC = tested on: HOP-62 NSCLC
OVCAR-3 ovarian = tested on: OVCAR-3 ovarian
A549 NSCLC = tested on: A549 NSCLC

SMILES: CN(C)CCC(=O)C(=Cc1ccc(O)cc1)C(=O)CCN(C)C
- TGI (SNB-19 CNS): > 100 µM
- GI50 (SF-268 CNS): > 100 µM
- TGI (SF-268 CNS): > 100 µM
- GI50 (CAKI-1 renal): 16.4 µM
- TGI (CAKI-1 renal): 32.5 µM
- GI50 (EKVX NSCLC): > 100 µM
- TGI (EKVX NSCLC): > 100 µM
- GI50 (MALME-3M melanoma): > 100 µM
- TGI (MALME-3M melanoma): > 100 µM
- GI50 (SK-OV-3 ovarian): > 100 µM
- TGI (SK-OV-3 ovarian): > 100 µM
- GI50 (OVCAR-4 ovarian): 26.2 µM
- TGI (OVCAR-4 ovarian): > 100 µM
- GI50 (KM12 colon): 41.9 µM
- TGI (KM12 colon): > 100 µM
- GI50 (NCI-H23 lung): > 100 µM
- TGI (NCI-H23 lung): > 100 µM
- GI50 (ACHN renal): > 100 µM
- TGI (ACHN renal): > 100 µM
- GI50 (HCT-15 colon): 52.5 µM
- TGI (HCT-15 colon): > 100 µM
- GI50 (UO-31 renal): 25.2 µM
- TGI (UO-31 renal): 69.8 µM
- GI50 (SR leukemia): 93.2 µM
- TGI (SR leukemia): > 100 µM
- GI50 (SF-539 CNS): > 100 µM
- TGI (SF-539 CNS): > 100 µM
- GI50 (SN12C renal): > 100 µM
- TGI (SN12C renal): > 100 µM
- GI50 (CCRF-CEM leukemia): 43.4 µM
- TGI (CCRF-CEM leukemia): > 100 µM
- GI50 (NCI-H522 lung): 16.4 µM
- TGI (NCI-H522 lung): 38.9 µM
- GI50 (M14 melanoma): > 100 µM
- TGI (M14 melanoma): > 100 µM
- GI50 (TK-10 renal): > 100 µM
- TGI (TK-10 renal): > 100 µM
- GI50 (NCI-H460 lung): > 100 µM
- TGI (NCI-H460 lung): > 100 µM
- GI50 (MOLT-4 leukemia): 80 µM
- TGI (MOLT-4 leukemia): > 100 µM
- GI50 (HL-60(TB) leukemia): > 100 µM
- TGI (HL-60(TB) leukemia): > 100 µM
- GI50 (HCC-2998 colon): > 100 µM
- TGI (HCC-2998 colon): > 100 µM
- GI50 (SK-MEL-5 melanoma): > 100 µM
- TGI (SK-MEL-5 melanoma): > 100 µM
- GI50 (LOX IMVI melanoma): 79.6 µM
- TGI (LOX IMVI melanoma): > 100 µM
- GI50 (HOP-62 NSCLC): > 100 µM
- TGI (HOP-62 NSCLC): > 100 µM
- GI50 (OVCAR-3 ovarian): > 100 µM
- TGI (OVCAR-3 ovarian): > 100 µM
- GI50 (A549 NSCLC): > 100 µM
- TGI (A549 NSCLC): > 100 µM
